Laboratory results published in US20140057880A1, “ANTCIN DERIVATIVES IN COMBINATION WITH ANTI-CANCER DRUGS IN THE TREATMENT AND/OR PREVENTION OF TUMORS” (Taiwan Antitumor Biotech Co., Ltd., priority 2012, published 2014).
Values after ≈ are worked out from the molar mass of the structure shown. Like-named read-outs stand apart in the source and are kept apart here.

Assays:
human cancer cells = human cancer cells rather than normal cells; cited from earlier work
HepG2 cells [1] = tested on: HepG2 cells
CCD-966SK cells = assay: Cell viability assay (MTT assay), normal cell line CCD-966SK; type: cell-based
HepG2 cells [2] = assay: cells; settings: Homo sapiens, HepG2, 24 h, read-out: IC50 of HepG2 cells

In the case of C=C(CC[C@@H](C)[C@H]1CC[C@H]2C3=C(C(=O)C[C@]12C)[C@@]1(C)CCC(=O)[C@@H](C)[C@@H]1CC3)[C@@H](C)C(=O)O [Antcin A, 4α-methylergosta-8,24(28)-diene-3,11-dione-26-oic acid], the “selective inhibition of proliferation” value (human cancer cells) is given as “selectively inhibit proliferation of human cancer cells rather than normal cells”.

For C=C(CC[C@@H](C)[C@H]1CC[C@H]2C3=C(C(=O)C[C@]12C)[C@@]1(C)CCC(=O)[C@@H](C)C1C[C@@H]3O)C(C)C(=O)O (stereo partly shown) [Antcin C, 4amethylergosta-8,24(28)-dien-3,11-trion-7P-26-oic acid], the “selective inhibition of proliferation” value (human cancer cells) is given as “selectively inhibit proliferation of human cancer cells rather than normal cells”.

In the case of CC/C(=C(\c1ccccc1)c1ccc(OCCN(C)C)cc1)c1ccccc1 [tamoxifen], the “killing of HepG2 cells” value (HepG2 cells [1]; 12.5 μg/ml tamoxifen alone) is reported as “cannot be completely killed”.

With CCN(CC)CCNC(=O)c1c(C)[nH]c(/C=C2\C(=O)Nc3ccc(F)cc32)c1C [sunitinib] the “killing of normal cells (CCD-966SK cells)” value (CCD-966SK cells; sunitinib alone at about 25 μg/ml (FIG. 10)) was “also killed” and the IC50 (HepG2 cells [2]) was about 25 µg/mL (≈ 62.7 µM).

With O=c1[nH]cc(F)c(=O)[nH]1 [5FU, 5-fluorouracil] the “killing of HepG2 cells” value (HepG2 cells [1]; 5FU alone, high concentration) was “cannot be completely killed” and the IC50 (HepG2 cells [2]) was 200 µg/mL (≈ 1540 µM).

For C=C(CC[C@@H](C)[C@H]1CC[C@H]2C3=C(C(=O)C[C@]12C)[C@@]1(C)CCC(=O)[C@@H](C)[C@@H]1CC3)C(C)C(=O)OC (stereo partly shown) [Methyl antcinate A], the “selective inhibition of proliferation” value (human cancer cells) is listed as “selectively inhibit proliferation of human cancer cells rather than normal cells”.

In the case of O=C1c2c(O)ccc(O)c2C(=O)c2c(NCCNCCO)ccc(NCCNCCO)c21 [mitoxantrone], the “viability of normal cells (CCD-966SK cells)” value (CCD-966SK cells; mitoxantrone alone at about 2.5 μg/ml (FIG. 12)) is reported as “reduced” and the IC50 (HepG2 cells [2]) is reported as about 2.5 µg/mL (≈ 5.62 µM).
